The subject of data set [1] is transgenic plants expressing full-length HopM1. As to the kind of experiment: DEX spraying of transgenic plants expressing full-length HopM1. Format: in vivo, Arabidopsis.
Another data set relates to AtMIN7. As to the kind of experiment: Proteasome/protease inhibitors on HopM1-mediated destabilization of AtMIN7 in N. benthamiana leaves (immunoblot). Format: cell-based, Arabidopsis thaliana. Particulars: AtMIN7:HA and 6×His:HopM1 1-712 co-expressed. Here is the method:
AtMIN-HA and 6×His-HopM1 proteins were detected using the HA and 6×His epitope antibodies, respectively. AtMIN7-HA was pulled down with HopM1-300 but not with 6×His-HopM1301-712; and (C) Western blot and reverse transcription polymerase chain reaction analyses of HopM1-dependent destabilization of AtMIN7 in Arabidopsis plants. Leaves of Col-0 gl1 plants were infiltrated with water or 1×10^8 CFUs per milliliter of DCEL mutant bacteria with or without pORF43 and harvested 10 hours later. The endogenousAtMIN7 protein—detected with the use of a rabbit polyclonal AtMIN7 antibody—was absent in leaves infiltrated with DCEL mutant bacteria (pORF43) that produce HopM1; however, the AtMIN7 transcript level was not reduced. […] AtMIN7:HA and 6×His:HopM11-712 proteins were detected with HA and 6×His epitope antibodies, respectively.
N. benthamiana plants were transiently transformed with HopM1 and AtMIN proteins. In brief, fully expanded N. benthamiana leaves were co-infiltrated with Agrobacterium tumefaciens C58 C1 (for an example of co-infiltration techniques, see, Hellens, et al. (2005) Plant Methods, 1:13; herein incorporated by reference) comprising plasmids and genes described herein (for example, see, Bechtold, et al. (1993) Comptes Rendus De L Academie Des Sciences Serie Iii-Sciences De La Vie-Life Sciences 316(10):1194-1199; herein incorporated by reference). […]
On the technique in general: In western blotting, separated proteins are transferred to a membrane and probed.

Another data set relates to Pst DC3000 ΔCEL mutant. As to the kind of experiment: Bacterial multiplication and disease symptoms in HopM1 transgenic Arabidopsis plants. Particulars: protein expressed in transgenic Arabidopsis (Col-0 gl1), DEX-induced. Format: in vivo, Pseudomonas syringae. The method, then:
Following inoculation, infected plants were monitored daily over a 3- to 4-day period for symptom development and bacterial multiplication. For experiments described in FIGS. 1 and 5, plants were sprayed with 30 μM dexamethasone (DEX) 24 h before bacterial inoculation (1×10^6 cfu/ml).
Leaves were harvested and surface sterilized as follows: 1) whole leaves were removed from a host plant and gently mixed in a 70% ethanol solution for 1 minute. Leaves were blotted briefly on paper towels then rinsed in sterile distilled water for 1 minute, then blotted dry on paper towels. Leaf disks were excised from leaves with a 0.5 cm^2 or smaller cork borer, depending on the size of the sample leaves; 2) leaf disks from the leaves of 2 or more independent replicate plants were pooled for a single tissue sample and placed in a 1.5-mL microfuge tube with 100 μL sterile distilled water, the amount of leaf tissue per tube was recorded as leaf surface area. Three or more samples were harvested for each time point. […] The number of serial dilutions necessary to get countable colonies were determined for each sample, however dilutions to 10^−7 were usually sufficient for any bacterial strain; 7) The samples were plated on the appropriate medium (e.g., Low salt Luria Bertani) supplemented with the necessary antibiotics to select for the specific inoculated bacterial strain. […]

For the next data set, the target named is T1, AtMIN7-HA (Arabidopsis thaliana, UniProt F4IXW2, DEL212-213/INS429[…]).
T1 construct: expressed in transfected cells; host or cells: Nicotiana benthamiana leaves, Agrobacterium tumefaciens C58C1 co-infiltration (pBI121-AtMIN or pBAR1-AtMIN, CaMV 35S promoter)
T1 sequence (F4IXW2 with tags, fused parts or gaps DEL212-213/INS429[withheld]): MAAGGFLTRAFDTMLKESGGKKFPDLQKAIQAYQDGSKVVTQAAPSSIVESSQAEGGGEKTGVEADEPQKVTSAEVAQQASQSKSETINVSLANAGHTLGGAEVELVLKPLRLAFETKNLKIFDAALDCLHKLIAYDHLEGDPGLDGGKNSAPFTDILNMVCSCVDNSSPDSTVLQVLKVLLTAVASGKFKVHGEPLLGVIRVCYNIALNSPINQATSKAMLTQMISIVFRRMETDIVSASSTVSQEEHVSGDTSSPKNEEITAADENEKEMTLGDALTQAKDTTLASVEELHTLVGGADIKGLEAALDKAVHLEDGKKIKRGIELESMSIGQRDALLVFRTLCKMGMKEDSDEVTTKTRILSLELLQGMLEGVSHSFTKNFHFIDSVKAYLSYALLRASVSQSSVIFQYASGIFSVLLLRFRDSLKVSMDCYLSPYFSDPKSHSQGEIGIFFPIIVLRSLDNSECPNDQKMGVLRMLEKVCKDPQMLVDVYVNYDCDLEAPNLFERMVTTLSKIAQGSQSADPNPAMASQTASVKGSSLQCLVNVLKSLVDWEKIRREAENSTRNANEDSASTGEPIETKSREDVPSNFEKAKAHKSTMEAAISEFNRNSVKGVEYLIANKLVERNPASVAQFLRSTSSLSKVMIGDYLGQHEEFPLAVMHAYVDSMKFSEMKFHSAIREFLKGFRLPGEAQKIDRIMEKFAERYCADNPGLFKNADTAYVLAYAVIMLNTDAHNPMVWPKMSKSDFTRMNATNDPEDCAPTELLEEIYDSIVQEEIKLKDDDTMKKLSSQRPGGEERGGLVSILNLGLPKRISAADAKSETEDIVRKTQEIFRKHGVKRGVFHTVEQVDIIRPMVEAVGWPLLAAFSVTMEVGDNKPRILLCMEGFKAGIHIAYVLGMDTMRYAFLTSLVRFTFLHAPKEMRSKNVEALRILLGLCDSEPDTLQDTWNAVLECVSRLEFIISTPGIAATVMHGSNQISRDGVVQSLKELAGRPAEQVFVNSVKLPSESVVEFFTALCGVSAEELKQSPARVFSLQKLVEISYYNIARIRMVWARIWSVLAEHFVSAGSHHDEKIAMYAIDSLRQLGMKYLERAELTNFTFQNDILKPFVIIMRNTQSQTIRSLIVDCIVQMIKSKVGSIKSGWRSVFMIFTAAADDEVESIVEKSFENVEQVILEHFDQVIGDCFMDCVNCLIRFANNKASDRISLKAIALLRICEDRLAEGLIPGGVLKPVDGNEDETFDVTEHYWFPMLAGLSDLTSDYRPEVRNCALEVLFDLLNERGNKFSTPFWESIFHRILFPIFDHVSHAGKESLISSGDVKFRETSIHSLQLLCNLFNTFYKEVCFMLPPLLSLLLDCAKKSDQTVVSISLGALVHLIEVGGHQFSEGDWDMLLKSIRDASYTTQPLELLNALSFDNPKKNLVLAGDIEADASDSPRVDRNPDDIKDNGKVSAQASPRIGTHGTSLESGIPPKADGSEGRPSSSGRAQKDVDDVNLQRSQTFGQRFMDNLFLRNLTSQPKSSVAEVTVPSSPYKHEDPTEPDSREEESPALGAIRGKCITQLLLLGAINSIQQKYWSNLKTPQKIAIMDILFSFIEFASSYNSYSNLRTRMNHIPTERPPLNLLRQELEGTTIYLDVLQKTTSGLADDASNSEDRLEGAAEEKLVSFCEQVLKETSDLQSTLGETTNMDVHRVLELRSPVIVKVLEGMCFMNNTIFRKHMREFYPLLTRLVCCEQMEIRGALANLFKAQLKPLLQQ
As to the kind of experiment: Protein pull-down assay in N. benthamiana leaves. Format: binding. Particulars: Ni-NTA pull-down, immunoblot. An excerpt:
N. benthamiana plants were transiently transformed with HopM1 and AtMIN proteins. In brief, fully expanded N. benthamiana leaves were co-infiltrated with Agrobacterium tumefaciens C58 C1 (for an example of co-infiltration techniques, see, Hellens, et al. (2005) Plant Methods, 1:13; herein incorporated by reference) comprising plasmids and genes described herein (for example, see, Bechtold, et al. (1993) Comptes Rendus De L Academie Des Sciences Serie Iii-Sciences De La Vie-Life Sciences 316(10):1194-1199; herein incorporated by reference).
Protein pull-down analysis methods: N. benthamiana leaf discs were homogenized in lysis buffer (50 mM Tris-HCl pH=8.0, 250 mM NaCl, 10 mM β-mercaptoethanol, 1% Triton X100, 1 mM PMSF, plant protease inhibitor cocktail [Sigma Co.]). Total protein extracts were collected after centrifugation of the homogenate at 20,000-×g for 15 min at 4° C. to remove insoluble materials. The supernatant was incubated with Ni-NTA agarose beads (Qiagen) with gentle shaking for 1 hour at 4° C., followed by centrifugation at 15,000-×g for 1 min to pull down 6×His-HopM1 and its interacting proteins. Beads were then washed three times with lysis buffer and resuspended in 1×SDS-PAGE sample buffer for SDS-PAGE gel and/or immunoblot analyses. […] AtMIN10-HA was detected using the HA epitope antibody.

Residues, ends and D or L forms follow the SMILES beside them. *: point of attachment. Cbz = O=C(OCc1ccccc1)*

The source of these data is patent publication US8058507B2, “HOPM1 mediated disease resistance to Pseudomonas syringae in Arabidopsis” (priority 2007, dated 2011).

For `C[C@@H]1C[C@H]2[C@@H]3CCC4=CC(=O)C=C[C@]4(C)[C@@]3(F)[C@@H](O)C[C@]2(C)[C@@]1(O)C(=O)CO` [DEX, dexamethasone], the leaf necrosis entry in data set [1] (0.003 μM spray) is listed as “did not induce leaf necrosis”. In addition, in data set [1] (30 μM DEX spray), the leaf necrosis result is listed as “induced rapid leaf necrosis” and the “time to leaf necrosis” value was no more than 10 h. Regarding `CC(C)C[C@@H](C=O)NC(=O)[C@H](CC(C)C)NC(=O)[C@H](CC(C)C)NC(=O)OCc1ccccc1` [MG132] (Cbz-Leu-Leu-Leu-aldehyde), the “HopM1-mediated destabilization of AtMIN7” value in the data set on AtMIN7 is reported as “blocked”. With `CC[C@H](C)[C@H](NC(=O)[C@H]([C@@H](C)CC)N(C)C(C)=O)C(=O)N[C@H](C(=O)N[C@@H](CC(C)C)C(=O)[C@@]1(C)CO1)[C@@H](C)O` [epoxomicin], in the data set with AtMIN7, the “HopM1-mediated destabilization of AtMIN7” value is reported as “blocked”.

B1: HopM1101-712: HopM1 truncated derivative lacking the first 100 aa (SEQ ID NO:98) (protein, listed as Pseudomonas syringae)
chain: LLQAFKAEHGTAPVSGAPMISSRAALLIGSLLQAEPLPFEVMAEKLSPERYQLKQFQGSDLQQRLEKFAQPGQIPDKAEVGQLIKGFAQSVADQLEHFQLMHDASPATVGQHAKADKATLAVSQTALGEYAGRASKAIGEGLSNSIASLDEHISALDLTLQDAEQGNKESLHADRQALVDAKTTLVGLHADFVKSPEAKRLASVAAHTQLDNVVSDLVTARNTVGGWKGAGPIVAAAVPQFLSSMTHLGYVRLSTSDKLRDTIPETSSDANMLKASIIGMVAGIAHETVNSVVKPMFQAALQKTGLNERLNMVPMKAVDTNTVIPDPFELKSEHGELVKKTPEEVAQDKAFVKSERALLNQKKVQGSSTHPVGELMAYSAFGGSQAVRQMLNDVHQINGQTLSARALASGFGGAVSASSQTLLQLKSNYVDPQGRKIPVFTPDRAESDLKKDLLKGMDLREPSVRTTFYSKALSGIQSSALTSALPPVTAQAEGASGTLSAGAILRNMALAATGSVSYLSTLYTNQSVTAEAKALKAAGMGGATPMLDRTETALNNIRHPNRESLPHTFQKSTLSGIPRVAENAYHMGRGALQLPTQMAVDTVRVVDEGVLNAVASAREALKQPTKDDDALRALEEGLLDPR
In the case of B1, the “complementation of the virulence defect (multiplication, disease symptoms)” value with Pst DC3000 ΔCEL mutant was “partially restored”.

B2: HopM1301-712: HopM1 truncated derivative, amino acids 301-712 (protein)
chain: GPIVAAAVPQFLSSMTHLGYVRLSTSDKLRDTIPETSSDANMLKASIIGMVAGIAHETVNSVVKPMFQAALQKTGLNERLNMVPMKAVDTNTVIPDPFELKSEHGELVKKTPEEVAQDKAFVKSERALLNQKKVQGSSTHPVGELMAYSAFGGSQAVRQMLNDVHQINGQTLSARALASGFGGAVSASSQTLLQLKSNYVDPQGRKIPVFTPDRAESDLKKDLLKGMDLREPSVRTTFYSKALSGIQSSALTSALPPVTAQAEGASGTLSAGAILRNMALAATGSVSYLSTLYTNQSVTAEAKALKAAGMGGATPMLDRTETALNNIRHPNRESLPHTFQKSTLSGIPRVAENAYHMGRGALQLPTQMAVDTVRVVDEGVLNAVASAREALKQPTKDDDALRALEEGLLDPR
modifications: left off: small tags and cut ends
Take B2: the “physical interaction with AtMIN7-HA” value with AtMIN7-HA is listed as “no interaction”.
